Reference: DBAASP
Values after ≈ are worked out from the molar mass of the structure shown. One block for each molecule: values may come before it.

How the values were obtained:
Experiment in all cases: ≥ marks a high value that may be exact or a test limit, other limits are often not marked, values filed in µg/mL are converted to µM
[1] = tested on: Stenotrophomonas maltophilia
Enterococcus faecium = tested on: Enterococcus faecium
Staphylococcus aureus MR = tested on: Staphylococcus aureus MR
Klebsiella pneumoniae = tested on: Klebsiella pneumoniae
Enterococcus faecalis = tested on: Enterococcus faecalis
Acinetobacter baumannii = tested on: Acinetobacter baumannii
Serratia marcescens = tested on: Serratia marcescens
Staphylococcus aureus = tested on: Staphylococcus aureus
Pseudomonas aeruginosa = tested on: Pseudomonas aeruginosa
Escherichia coli = tested on: Escherichia coli
Streptococcus pneumoniae = tested on: Streptococcus pneumoniae
[2] = tested on: Batrachochytrium dendrobatidis JEL-197
[3] = tested on: Pseudomonas aeruginosa ATCC 13388
[4] = tested on: Escherichia coli ATCC 11219
[5] = tested on: Salmonella enterica subsp. enterica serovar Typhimurium ATCC 14028
[6] = tested on: Staphylococcus aureus ATCC 6538
[7] = tested on: Klebsiella pneumoniae ATCC 10031
[8] = tested on: Staphylococcus aureus P1374
[9] = tested on: Staphylococcus aureus ATCC 25923
[10] = tested on: Staphylococcus aureus AB94004
[11] = tested on: Pseudomonas aeruginosa ATCC 9027
[12] = tested on: Staphylococcus aureus P1381
[13] = tested on: Pseudomonas aeruginosa AB93066
[14] = tested on: Escherichia coli ATCC 25922
Escherichia coli AB94012 = tested on: Escherichia coli AB94012
Escherichia coli DC2 = tested on: Escherichia coli DC2
[15] = tested on: Corynebacterium xerosis C875
[16] = tested on: Staphylococcus epidermidis C621
Escherichia coli UB1005 = tested on: Escherichia coli UB1005
Bacillus cereus = tested on: Bacillus cereus
Bacillus anthracis = tested on: Bacillus anthracis

MIC [1]: 12.7 µM (≈ 32 µg/mL)
MIC (Enterococcus faecium): 12.7 µM (≈ 32 µg/mL)
MIC (Staphylococcus aureus MR): 4.47 µM (≈ 11.3 µg/mL)
MIC (Klebsiella pneumoniae): 4.47 µM (≈ 11.3 µg/mL)
MIC (Enterococcus faecalis): 4.47 µM (≈ 11.3 µg/mL)
MIC (Acinetobacter baumannii): 12.7 µM (≈ 32 µg/mL)
MIC (Serratia marcescens): 8.95 µM (≈ 22.6 µg/mL)
MIC (Staphylococcus aureus): 4.47 µM (≈ 11.3 µg/mL)
MIC (Pseudomonas aeruginosa): 12.7 µM (≈ 32 µg/mL)
MIC (Escherichia coli): 3.16 µM (≈ 7.99 µg/mL)
MIC (Streptococcus pneumoniae): 4.47 µM (≈ 11.3 µg/mL)
SMILES: CC[C@H](C)[C@H](NC(=O)[C@@H](NC(=O)[C@H](CCCCN)NC(=O)[C@H](CS)NC(=O)[C@H](CCCCN)NC(=O)[C@H](CCCN=C(N)N)NC(=O)[C@H](CC(C)C)NC(=O)[C@@H](NC(=O)[C@H](CCCCN)NC(=O)[C@@H](NC(=O)[C@H](CC(C)C)NC(=O)[C@H](C)NC(=O)[C@@H](NC(=O)[C@H](Cc1ccccc1)NC(=O)CNC(=O)[C@@H]1CCCN1C(=O)[C@@H]1CCCN1C(=O)[C@@H](NC(=O)[C@H](CCC(=O)O)NC(=O)[C@H](CCCN=C(N)N)NC(=O)[C@H](CC(N)=O)NC(=O)[C@@H](N)CCC(=O)O)C(C)C)[C@@H](C)O)[C@@H](C)CC)[C@@H](C)O)[C@@H](C)CC)C(=O)O [ENREVPPGFTALIKTLRKCKII]

MIC [8]: 3.87 µM (≈ 6.25 µg/mL)
MIC [9]: 7.73 µM (≈ 12.5 µg/mL)
MIC [10]: 3.87 µM (≈ 6.25 µg/mL)
MIC [11]: 30.9 µM (≈ 50 µg/mL)
MIC [12]: 3.87 µM (≈ 6.25 µg/mL)
MIC [6]: 7.73 µM (≈ 12.5 µg/mL)
MIC [13]: 30.9 µM (≈ 50 µg/mL)
MIC [14]: 30.9 µM (≈ 50 µg/mL)
MIC (Escherichia coli AB94012): 15.5 µM (≈ 25 µg/mL)
SMILES: CC[C@H](C)[C@H](NC(=O)[C@H](CO)NC(=O)[C@H](CCCCN)NC(=O)[C@@H](NC(=O)CNC(=O)[C@H](CCCCN)NC(=O)[C@H](Cc1c[nH]c2ccccc12)NC(=O)[C@H](CC(C)C)NC(=O)[C@H](CCCCN)NC(=O)CNC(=O)[C@H](CC(C)C)NC(=O)[C@@H](NC(=O)[C@@H](N)CCCCN)[C@@H](C)CC)C(C)C)C(=O)N[C@@H](Cc1ccccc1)C(N)=O [KILGKLWKGVKSIF]

MIC (Escherichia coli DC2): 8 µM (≈ 20.8 µg/mL)
MIC [15]: 0.25 µM (≈ 0.649 µg/mL)
MIC [16]: 0.25 µM (≈ 0.649 µg/mL)
MIC (Escherichia coli UB1005): 16 µM (≈ 41.6 µg/mL)
SMILES: C[C@H](NC(=O)[C@H](C)NC(=O)[C@H](C)NC(=O)[C@H](Cc1c[nH]c2ccccc12)NC(=O)[C@H](C)NC(=O)[C@H](C)NC(=O)[C@H](C)NC(=O)[C@H](CCCCN)NC(=O)[C@@H](N)CCCCN)C(=O)N[C@@H](C)C(=O)N[C@@H](C)C(=O)N[C@@H](Cc1c[nH]c2ccccc12)C(=O)N[C@@H](C)C(=O)N[C@@H](C)C(=O)N[C@@H](Cc1c[nH]c2ccccc12)C(=O)N[C@@H](C)C(=O)N[C@@H](C)C(=O)N[C@@H](Cc1c[nH]c2ccccc12)C(=O)N[C@@H](C)C(=O)N[C@@H](C)C(=O)N[C@@H](C)C(=O)N[C@@H](CCCCN)C(=O)N[C@@H](CCCCN)C(=O)N[C@@H](CCCCN)C(=O)N[C@@H](CCCCN)C(N)=O [KKAAAWAAAAAWAAWAAWAAAKKKK]

The next lines start with the molecule.

SMILES: CC[C@H](C)[C@H](NC(=O)[C@H](CC(C)C)NC(=O)[C@H](CCCCN)NC(=O)[C@@H]1CCCN1C(=O)[C@@H](NC(=O)[C@H](CC(C)C)NC(=O)[C@H](CC(N)=O)NC(=O)[C@H](C)NC(=O)[C@H](C)NC(=O)[C@H](CC(C)C)NC(=O)CNC(=O)[C@H](C)NC(=O)[C@H](CC(C)C)NC(=O)[C@@H](NC(=O)[C@@H]1CCCN1C(=O)[C@H](CC(C)C)NC(=O)[C@@H](N)Cc1ccccc1)[C@@H](C)CC)C(C)C)C(=O)N[C@H]1CSSC[C@@H](C(=O)O)NC(=O)[C@H](CCCCN)NC(=O)[C@H](CCCCN)NC(=O)[C@H]([C@@H](C)O)NC(=O)[C@H]([C@@H](C)CC)NC(=O)[C@H](CO)NC1=O [FLPILAGLAANLVPKLICSITKKC]
MIC [2]: 12.5 µM (≈ 31.6 µg/mL)

SMILES: CC[C@H](C)[C@H](NC(=O)CN)C(=O)N[C@@H](Cc1cnc[nH]1)C(=O)N[C@@H](CC(=O)O)C(=O)N[C@H](C(=O)N[C@@H](CC(C)C)C(=O)N[C@@H](CCCCN)C(=O)N[C@@H](Cc1ccc(O)cc1)C(=O)NCC(=O)N[C@@H](CCCCN)C(=O)N1CCC[C@H]1C(=O)N[C@@H](CO)C(N)=O)[C@@H](C)CC [GIHDILKYGKPS]
MIC [3]: 30 µM (≈ 39.8 µg/mL)
MIC [4]: 5 µM (≈ 6.63 µg/mL)
MIC [5]: 20 µM (≈ 26.5 µg/mL)
MIC [6]: 10 µM (≈ 13.3 µg/mL)
MIC [7]: 10 µM (≈ 13.3 µg/mL)

SMILES: CC[C@H](C)[C@H](NC(=O)CN)C(=O)N[C@@H](Cc1cnc[nH]1)C(=O)N[C@@H](CCCN=C(N)N)C(=O)N[C@H](C(=O)N[C@@H](CC(C)C)C(=O)N[C@@H](CCCCN)C(=O)N[C@@H](Cc1ccc(O)cc1)C(=O)NCC(=O)N[C@@H](CCCCN)C(=O)N1CCC[C@H]1C(=O)N[C@@H](CO)C(N)=O)[C@@H](C)CC [GIHRILKYGKPS]
MIC [3]: 10 µM (≈ 13.7 µg/mL)
MIC [4]: 2.2 µM (≈ 3.01 µg/mL)
MIC [5]: 3 µM (≈ 4.1 µg/mL)
MIC [6]: 10 µM (≈ 13.7 µg/mL)
MIC [7]: 3 µM (≈ 4.1 µg/mL)

SMILES: CC[C@H](C)[C@H](NC(=O)[C@H](CC(C)C)NC(=O)[C@H](C)NC(=O)[C@@H]1CCCN1C(=O)[C@H](C)NC(=O)[C@@H](NC(=O)[C@H](CCCCN)NC(=O)[C@@H](N)CCCN=C(N)N)C(C)C)C(=O)N[C@@H](CCCCN)C(=O)N[C@@H](CO)C(=O)N[C@@H](Cc1ccccc1)C(=O)N[C@H](C(=O)N[C@@H](Cc1ccccc1)C(=O)N[C@@H](CC(C)C)C(=O)N[C@@H](Cc1ccccc1)C(=O)N[C@@H](CCCCN)C(=O)N[C@@H](Cc1ccccc1)C(=O)N[C@@H](CCCCN)C(=O)N[C@@H](CCCCN)C(=O)NCC(=O)O)C(C)C [RKVAPALIKSFVFLFKFKKG]
MIC (Bacillus cereus): ≥ 110 µM
MIC (Staphylococcus aureus): 55.1 µM (≈ 128 µg/mL)
MIC (Bacillus anthracis): ≥ 110 µM
MIC (Escherichia coli): > 110 µM

SMILES: CC(C)C[C@H](NC(=O)[C@H](C)NC(=O)[C@H](CO)NC(=O)[C@H](Cc1ccccc1)NC(=O)[C@@H](NC(=O)[C@H](CO)NC(=O)[C@@H]1CCCN1C(=O)[C@@H](NC(=O)[C@@H](NC(=O)[C@H](CCCCN)NC(=O)[C@H](CO)NC(=O)[C@H](C)NC(=O)[C@H](CC(C)C)NC(=O)[C@H](CCCCN)NC(=O)[C@H](Cc1ccccc1)NC(=O)[C@@H](NC(=O)[C@H](Cc1ccccc1)NC(=O)[C@@H](N)CO)C(C)C)C(C)C)C(C)C)C(C)C)C(=O)N[C@H](C(=O)N[C@@H](CCCN=C(N)N)C(=O)O)[C@@H](C)O [SFVFKLASKVVPSVFSALTR]
MIC (Bacillus cereus): ≥ 117 µM
MIC (Staphylococcus aureus): 117 µM
MIC (Bacillus anthracis): ≥ 58.6 µM
MIC (Escherichia coli): 117 µM
